Measurements reported in patent US12233419B2, “Devices, systems, and methods for single cell bacteria analysis” (priority 2018, dated 2025).
{TAMRA} = 6-carboxytetramethylrhodamine (NHS ester) fluorophore; {FAM} = 6-carboxyfluorescein (6-FAM) fluorophore; {IBFQ} = Iowa Black FQ dark quencher; {IBRQ} = Iowa Black RQ dark quencher

Columns and labels:
E. coli (EC137) = experiment: Single cell AST in adaptable microfluidic device; type: cell-based; conditions: for antibiotic response in polymicrobial sample: ampicillin 8 μg/mL, mixed with S. epidermidis or EC136
Excerpt: (§1) Taking advantage of microfluidic confinement, single cell AST can be performed phenotypically in the presence of antibiotics in the channel. Resistant strains can grow in the presence of the antibiotic while the antibiotic would inhibit the growth of susceptible strains (FIG. 1C). As the cross-section of the channels is compatible with the size of the pathogen, the bacterial growth is confined along the microchannel. The change in length of the bacteria in the channel over time is used to quantitatively measure the growth of the bacteria.
(§2) In embodiments, bacterial trapping channels of this disclosure are also capable of single cell AST by monitoring the phenotypic growth of the trapped bacteria in the channel. In control groups without antibiotics, the bacteria grew exponentially along the microchannels (FIG. 2B, E, H). […] Growth was measured by an increase in the length of the bacteria occupying the microchannel. The length was normalized according to the initial length for estimating the growth rate, to account for variation of the initial length. Comparison of the growth rate between the control group and the antibiotic group determined the susceptibility of the bacteria. […] Unless otherwise specified, this definition is applied throughout Part I of this disclosure.
(§3) E. coli, S. epidermidis, and M. bacteremicum were cultured in Mueller Hinton broth, Nutrient broth, and ATCC medium 1395, respectively. The bacteria were cultured to an optical density at 600 nm (OD600) around 0.2 (measured with Nanodrop 2000, Thermo Scientific) and diluted to 5×10^5 cfu/mL following the CLSI guideline. […] The concentration of oxacillin for S. epidermidis was 4 μg/mL. A 20 μl sample was loaded into the inlet of the microchannel. Culture medium was applied to immerse the whole device. The device was then loaded on a microscope (Leica DMI4000B) thermal stage for real-time monitoring (SensiCam QE, PCO) of the bacterial growth. The length of the bacteria occupying the microchannel was measured in ImageJ (imagej.nih.gov/ij/). To model the polymicrobial infection with different species, E. coli (EC137) and S. epidermidis were cultured to OD600 around 0.2, mixed at ratio of 1:1, and diluted to a final concentration of 1×10^6 cfu/mL with and without ampicillin (8 μg/mL). To mimic the polymicrobial infection with different strains, E. coli (EC137 and EC136) were mixed at a ratio of 10:1 and diluted to a final concentration of 5×10^6 cfu/mL with and without ampicillin. In this embodiment, the antibiotic resistance was determined as 50% reduction in the growth rate (or two-fold difference in growth rate) in the antibiotic group based on the distribution of the growth rate of single cells. In particular, we define the threshold value based on the standard derivation of single cell growth and t-statistics (two-tailed, unpaired). In our calibration tests, the standard deviations of the growth rate were below 25% of the mean (in the worst case scenario). In the calculation, the degree of freedom was 8, since at least 5 bacteria were used in each group. A 50% reduction in growth rate is equivalent to a p-value of approximately 0.022.

[1] = tested on: S. epidermidis (ATCC 12228); experiment: Single cell AST in adaptable microfluidic device; type: cell-based; conditions: for antibiotic response in polymicrobial sample: ampicillin 8 μg/mL, mixed with E. coli EC137 1:1
Excerpt: as §1, §2, §3

E. coli (EC136) = experiment: Single cell AST in adaptable microfluidic device; type: cell-based; conditions: ampicillin; EC137 and EC136 mixed 10:1
Method: We further evaluated the capability of the microfluidic system for identifying samples with multiple strains of the same species, which is challenging for genotypic diagnosis. Two strains of E. coli (EC137 and EC136 at a 10:1 ratio) with different antibiotic resistance profiles were tested. EC137 is susceptible to ampicillin while EC136 is resistant to ampicillin. Both strains were trapped in the microchannels at 180 kPa pressure with no spatial separation in the microchannel (FIG. 3F). […] In the antibiotic group, EC136 grew exponentially with ampicillin in the medium, whereas EC137 was lysed by ampicillin. FIG. 3J illustrates the growth curves of EC136 and EC137 in the same test.
E. coli, S. epidermidis, and M. bacteremicum were cultured in Mueller Hinton broth, Nutrient broth, and ATCC medium 1395, respectively. The bacteria were cultured to an optical density at 600 nm (OD600) around 0.2 (measured with Nanodrop 2000, Thermo Scientific) and diluted to 5×10^5 cfu/mL following the CLSI guideline. […] The concentration of oxacillin for S. epidermidis was 4 μg/mL. […] The length of the bacteria occupying the microchannel was measured in ImageJ (imagej.nih.gov/ij/). […] In this embodiment, the antibiotic resistance was determined as 50% reduction in the growth rate (or two-fold difference in growth rate) in the antibiotic group based on the distribution of the growth rate of single cells. […]

[2] = tested on: M. bacteremicum (ATCC 25791); experiment: Single cell AST in adaptable microfluidic device; type: cell-based; conditions: ciprofloxacin 2 μg/mL; growth/non-growth defined by 50% reduction in growth rate
Excerpt: as §1, §2, §3

E. coli EC132 = experiment: NAME pathogen identification with microfluidic single cell AST; type: cell-based; conditions: growth in channels with ciprofloxacin
Excerpt: (§4) We integrated pathogen identification and single cell AST by applying a microfluidic confinement technique (FIG. 23A) (18, from which the description of the microfluidic device and technique is incorporated herein by reference). […] In this integrated identification and AST assay, the bacteria were transformed, loaded into the microchannels via capillary flow, and trapped in the channels for phenotypic AST. […] AST was implemented by monitoring the bacterial growth in the channels with and without the presence of antibiotics.
(§5) The bacteria suspension (1 μl) was loaded onto a microscope slide and covered with a cover glass for imaging and counting using a fluorescence microscope (Leica DMI 4000B, objective 40×). The transformation efficiency was estimated by the number of bacteria with an observable fluorescence intensity over the total number of bacteria (bright-field). To conduct AST, the transformed bacteria were loaded onto the microfluidic device by capillary force.

E. coli EC137 = experiment: as above; type: cell-based; conditions: growth in channels with ciprofloxacin
Excerpt: as §4, §5

EC137 = experiment: Testing bacteria resistance with agar pads; type: cell-based, E. coli; conditions: with and without ciprofloxacin
Excerpt: FIG. 28. Testing bacteria resistance with agar pads. (A) Schematics of the procedure for creating agar pads for single cell AST. […] Scale bars, 25 μm.

[3] = tested on: bacterial 16S rRNA of E. coli; experiment: Intracellular 16S rRNA detection with double-stranded probes delivered by NAME; type: cell-based
Excerpt: (§6) As discussed above, the present disclosure provides a microwave electroporation approach for transforming molecular probes into viable bacteria for intracellular sensing and pathogen identification (FIG. 24). Multiwall carbon nanotubes, which couple and localize the microwave energy, can enhance the electric field in a manner similar to a lightning rod for microwave electroporation with a minimal effect on the cell viability^(14, 15). To evaluate the feasibility of multiplex single cell pathogen identification using NAME, two molecular probes targeting the species-specific regions of bacterial 16S rRNA of E. coli (EC probe) and P. aeruginosa (PA probe) were designed and transformed into the bacteria (Tables 4-5). The performance of the double-stranded nucleic acid probe was first calibrated for use in homogeneous sensing (FIG. 25). For multiplex detection, the PA probe was labeled with 6-carboxyfluorescein (6-FAM) and the EC probe was labeled with 6-carboxytetramethylrhodamine (6-TAMRA). Uropathogenic E. coli and P. aeruginosa were transformed with both probes for pathogen identification (FIG. 20D).
(§7) Four double-stranded probes were used in this disclosure (Table 4). Each probe contained two DNA strands. The donor strands were 22-24 nucleotides long and complementary to the target RNA of interest^(27, 28). The fluorophores, 6-FAM (Fluorescein) or 6-TAMRA (NHS Ester), were labeled at the 3′ end of the donor strands. The quencher strands were 11-12 nucleotides in length. The dark quenchers, Iowa Black FQ for 6-FAM or Iowa Black RQ for 6-TAMRA, were labeled at the 5′ end of the quencher strands immediately adjacent to the fluorophores on the donor strands. The probes were synthesized by Integrated DNA Technologies (Coralville, IA). Other reagents were purchased from Sigma Inc. (St. Louis, MO) unless otherwise specified. To conduct the assay, the probes were made by mixing the fluorophore and quencher strands in the buffer solution, which contains 10 mM Tris-EDTA with 100 mM NaCl at a 1:3 molar ratio, at 95° C. for 5 minutes. The mixtures were then allowed to cool down to room temperature slowly. The final concentration of the probes in the transformation test was 1.5×10^3 nM.
(§8) Bacteria were grown in Mueller Hinton Broth. To transform the double-stranded probe into bacteria, 100 μl of bacterial sample was centrifuged at 4500 rpm for 5 minutes and washed twice with phosphate buffer (PBS 1×). The multiwall carbon nanotubes that are functionalized with a carboxyl group (COOH) have a diameter of 30±15 nm and a length from 1 to 5 μm (NanoLab, Inc.). The nanotube solution (30 mg/ml) was filtered with a 1 μm microfilter. The pellet was resuspended into 100 μl filtered nanotube solution and incubated for 10 minutes at room temperature. Then, 10 μl molecular probe was added and incubated at room temperature for 10 minutes. The sample was incubated in ice for 5 minutes and then put into a microwave oven (700 W, 2.45 GHz) for 10 seconds. The microwave treated bacteria was incubated at room temperature for 30 minutes and washed 3 times with PBS (1×) to remove the extra probes and resuspended in PBS for imaging.

[4] = tested on: bacterial 16S rRNA of P. aeruginosa; experiment: as above; type: cell-based
Excerpt: as §6, §7, §8

CC1(C)S[C@@H]2[C@H](NC(=O)[C@H](N)c3ccccc3)C(=O)N2[C@H]1C(=O)O [ampicillin]
antibiotic response in polymicrobial sample (E. coli (EC137)): susceptible | antibiotic response in polymicrobial sample (E. coli (EC137); listed as Ampicillin): bactericidal effect | antibiotic response in polymicrobial sample [1]: resistant | antibiotic response in polymicrobial sample ([1]; listed as Ampicillin): no effect | antibiotic response in polymicrobial sample (E. coli (EC136)): resistant

O=C(O)c1cn(C2CC2)c2cc(N3CCNCC3)c(F)cc2c1=O [ciprofloxacin]
antimicrobial susceptibility (growth in microchannel) (E. coli (EC137); ciprofloxacin 4 μg/mL, growth/non-growth defined by 50% reduction in growth rate): effective | antimicrobial susceptibility (growth in microchannel) [2]: effective | antimicrobial susceptibility after NAME (E. coli EC132): resistant | antimicrobial susceptibility after NAME (E. coli EC137): susceptible | growth in agar pads (EC137): inhibited the growth

Cc1onc(-c2ccccc2)c1C(=O)N[C@@H]1C(=O)N2[C@@H]1SC(C)(C)[C@@H]2C(=O)O [oxacillin]
antimicrobial susceptibility (growth in microchannel) ([1]; oxacillin 4 μg/mL, growth/non-growth defined by 50% reduction in growth rate): completely inhibited the growth

EC probe (Red): double-stranded DNA probe for E. coli 16S rRNA; donor SEQ ID 3 with 3′ 6-TAMRA, quencher SEQ ID 4 with 5′ Iowa Black RQ (sense GGTATTAACTTTACTCCCTTCCTC; antisense GAGGAAGGGAGT; sense: 3' {TAMRA}, sugars by position and backbone not given here; antisense: 5' {IBRQ}, sugars by position and backbone not given here)
single cell pathogen identification of clinical isolates ([3]; isolates from clinical blood and urine samples): specifically identified | fluorescence signal from the probe in the bacteria ([3]; samples with E. coli only, both probes transformed): clearly observed | fluorescence signal from the probe in the bacteria (non-target probe) ([4]; P. aeruginosa samples, EC probe): not

PA probe: double-stranded DNA probe for P. aeruginosa 16S rRNA; donor SEQ ID 6 with 3′ 6-FAM, quencher SEQ ID 7 (sense GCTGAACCACCTACGCGCGCTTT; antisense AAAGCGCGCGTA; sense: 3' {FAM}, sugars by position and backbone not given here; antisense: 5' {IBFQ}, sugars by position and backbone not given here)
fluorescence signal from the probe in the bacteria (non-target probe) ([3]; samples with E. coli only, PA probe): not observable | fluorescence signal from the probe in the bacteria ([4]; P. aeruginosa samples, both probes transformed): high fluorescence signal | single cell pathogen identification of clinical isolates ([4]; isolates from clinical urine samples): specifically identified
